In article PMC2396520, “Antibody Complementarity-Determining Regions (CDRs) Can Display Differential Antimicrobial, Antiviral and Antitumor Activities” (PLoS ONE, 2008):
Where a SMILES comes first, the peptide text is derived from it.

Key:
[1] = system: B16F10-Nex2 murine melanoma cells; format: cell-based; conditions: for EC50: 12 h
Experimental: Each peptide was tested in triplicate. After 12 h, the cytotoxic activities of the peptides were determined by measuring cell viability by Trypan Blue exclusion.

Candida albicans UP10 = format: cell-based; conditions: for Anti-Candida activity (%) at 100 µg/mL: C7/pc42 H2 alanine-substituted derivatives, 37°C, 6 h, CFU assay, triplicate; for EC50: UP10, 6 h; for EC50asd/EC50H2: anti-Candida EC50 of the derivative relative to C7/pc42 H2
Experimental: The alanine substituted derivatives (asd), defined according to the position held by the alanine-substituted aminoacid, were tested in the same biological assays to critically establish the functional relevance of each residue [5]. In vitro microbicidal activity of CDR peptides and selected asd against C. albicans UP 10 (clinical isolate from the fungi collection of the University of Parma) and C. albicans NCPF 3153 (National Collection of Pathogenic Fungi, Bristol, UK) were used for the in vitro experiments.
The microbicidal activity of synthetic CDRs against C. albicans strains was preliminarily evaluated by testing 100 µg/mL of each synthetic peptide by colony forming unit (CFU) assays as previously described [5]. Briefly, 10 µL of a distilled water suspension containing ∼5×10^4/mL germinating yeast cells were added to 90 µL of distilled water containing the synthetic peptide to be tested. Yeast suspensions were incubated at 37°C for 6 h. After incubation, the cell suspensions were plated on Sabouraud dextrose agar, incubated at 30°C and observed for CFU determination after 48–72 hours. Each assay was carried out in triplicate. […] EC50 was calculated by nonlinear regression analysis using Graph Pad Prism 4.01 software, San Diego, CA, USA.

| Compound | EC50 [1] [µM] | EC50 (Candida albicans UP10) [µM] | EC50asd/EC50H2 (Candida albicans UP10) | Anti-Candida activity (%) at 100 µg/mL (Candida albicans UP10) [%] | apoptotic activity in melanoma cells ([1]; data not shown) |
| --- | --- | --- | --- | --- | --- |
| CC[C@H](C)[C@H](NC(=O)[C@@H](N)Cc1ccc(O)cc1)C(=O)N[C@@H](CO)C(=O)N[C@@H](CS)C(=O)N[C@@H](Cc1ccc(O)cc1)C(=O)N[C@@H](CC(N)=O)C(=O)NCC(=O)N[C@@H](C)C(=O)N[C@H](C(=O)N[C@@H](CO)C(=O)N[C@@H](Cc1ccc(O)cc1)C(=O)N[C@@H](CC(N)=O)C(=O)N[C@@H](C)C(=O)N[C@@H](CCCCN)C(=O)N[C@@H](Cc1ccccc1)C(=O)N[C@@H](CCCCN)C(=O)O)[C@@H](C)O [Q13A] (H-YISCYNGATSYNAKFK-OH; N-terminus and C-terminus assumed) | 128 | 3.91 | 0.93 | 100.00 |  |
| CC[C@H](C)[C@H](NC(=O)[C@@H](N)Cc1ccc(O)cc1)C(=O)N[C@@H](CO)C(=O)N[C@@H](CS)C(=O)N[C@@H](Cc1ccc(O)cc1)C(=O)N[C@@H](CC(N)=O)C(=O)NCC(=O)N[C@@H](C)C(=O)N[C@@H](C)C(=O)N[C@@H](CO)C(=O)N[C@@H](Cc1ccc(O)cc1)C(=O)N[C@@H](CC(N)=O)C(=O)N[C@@H](CCC(N)=O)C(=O)N[C@@H](CCCCN)C(=O)N[C@@H](Cc1ccccc1)C(=O)N[C@@H](CCCCN)C(=O)O [T9A] (H-YISCYNGAASYNQKFK-OH; N-terminus and C-terminus assumed) | 60.2 | 3.8 | 0.91 | 100.00 |  |
| CC[C@H](C)[C@H](NC(=O)[C@@H](N)Cc1ccc(O)cc1)C(=O)N[C@@H](CO)C(=O)N[C@@H](CS)C(=O)N[C@@H](Cc1ccc(O)cc1)C(=O)N[C@@H](C)C(=O)NCC(=O)N[C@@H](C)C(=O)N[C@H](C(=O)N[C@@H](CO)C(=O)N[C@@H](Cc1ccc(O)cc1)C(=O)N[C@@H](CC(N)=O)C(=O)N[C@@H](CCC(N)=O)C(=O)N[C@@H](CCCCN)C(=O)N[C@@H](Cc1ccccc1)C(=O)N[C@@H](CCCCN)C(=O)O)[C@@H](C)O [N6A] (H-YISCYAGATSYNQKFK-OH; N-terminus and C-terminus assumed) | 76.9 | 1.54 | 0.37 | 100.00 |  |
| CC[C@H](C)[C@H](NC(=O)[C@@H](N)Cc1ccc(O)cc1)C(=O)N[C@@H](CO)C(=O)N[C@@H](CS)C(=O)N[C@@H](Cc1ccc(O)cc1)C(=O)N[C@@H](CC(N)=O)C(=O)NCC(=O)N[C@@H](C)C(=O)N[C@H](C(=O)N[C@@H](CO)C(=O)N[C@@H](Cc1ccc(O)cc1)C(=O)N[C@@H](CC(N)=O)C(=O)N[C@@H](CCC(N)=O)C(=O)N[C@@H](C)C(=O)N[C@@H](Cc1ccccc1)C(=O)N[C@@H](CCCCN)C(=O)O)[C@@H](C)O [K14A] (H-YISCYNGATSYNQAFK-OH; N-terminus and C-terminus assumed) | 384 | 18.5 | 4.41 | 91.72 |  |
| CC(C)C[C@H](NC(=O)[C@H](CC(C)C)NC(=O)[C@H](CO)NC(=O)[C@H](CCC(N)=O)NC(=O)[C@H](CO)NC(=O)[C@H](CO)NC(=O)[C@@H](N)CCCCN)C(=O)N[C@@H](CC(N)=O)C(=O)N[C@@H](CO)C(=O)NCC(=O)N[C@@H](CC(N)=O)C(=O)N[C@@H](CCC(N)=O)C(=O)N[C@@H](CCCCN)C(=O)N[C@@H](CC(N)=O)C(=O)N[C@@H](Cc1ccc(O)cc1)C(=O)N[C@@H](CC(C)C)C(=O)N[C@H](C(=O)O)[C@@H](C)O [C7 L1] (H-KSSQSLLNSGNQKNYLT-OH) |  | 15.2 |  |  |  |
| SYNQKFK [C-terminal peptide of C7/pc42 H2] |  |  |  |  | not apoptotic by itself |
| CSCC[C@H](NC(=O)[C@H](Cc1ccc(O)cc1)NC(=O)[C@H](CO)NC(=O)[C@H](Cc1ccc(O)cc1)NC(=O)CNC(=O)[C@H](CO)NC(=O)[C@@H](NC(=O)[C@H](CO)NC(=O)[C@@H](NC(=O)[C@H](CO)NC(=O)[C@H](CCCCN)NC(=O)[C@H](CO)NC(=O)[C@H](C)NC(=O)[C@H](CCCNC(=N)N)NC(=O)[C@@H](N)Cc1ccc(O)cc1)C(C)C)[C@@H](C)O)C(=O)N[C@@H](Cc1c[nH]cn1)C(=O)O [pc42 L1] (H-YRASKSVSTSGYSYMH-OH) |  | 0.78 |  |  |  |
| CC(C)C[C@H](NC(=O)[C@H](CC(N)=O)NC(=O)[C@H](CO)NC(=O)[C@@H](NC(=O)[C@@H](N)CC(C)C)C(C)C)C(=O)N[C@@H](CCC(=O)O)C(=O)N[C@@H](CO)C(=O)O [pc42 L2] (H-LVSNLES-OH) |  | 12 |  |  |  |

Continued by falling EC50 (Candida albicans UP10), values first:

| EC50 [1] [µM] | EC50 (Candida albicans UP10) [µM] | EC50asd/EC50H2 (Candida albicans UP10) | Compound | Anti-Candida activity (%) at 100 µg/mL (Candida albicans UP10) [%] | apoptotic activity in melanoma cells ([1]; data not shown) |
| --- | --- | --- | --- | --- | --- |
| 113 | 47.6 | 11.35 | CC[C@H](C)[C@H](NC(=O)[C@@H](N)Cc1ccc(O)cc1)C(=O)N[C@@H](CO)C(=O)N[C@@H](CS)C(=O)N[C@@H](Cc1ccc(O)cc1)C(=O)N[C@@H](CC(N)=O)C(=O)NCC(=O)N[C@@H](C)C(=O)N[C@H](C(=O)N[C@@H](CO)C(=O)N[C@@H](C)C(=O)N[C@@H](CC(N)=O)C(=O)N[C@@H](CCC(N)=O)C(=O)N[C@@H](CCCCN)C(=O)N[C@@H](Cc1ccccc1)C(=O)N[C@@H](CCCCN)C(=O)O)[C@@H](C)O [Y11A] (H-YISCYNGATSANQKFK-OH; N-terminus and C-terminus assumed) | 55.70 |  |
| 73.5 | 28.5 | 6.81 | CC[C@H](C)[C@H](NC(=O)[C@@H](N)Cc1ccc(O)cc1)C(=O)N[C@@H](CO)C(=O)N[C@@H](CS)C(=O)N[C@@H](C)C(=O)N[C@@H](CC(N)=O)C(=O)NCC(=O)N[C@@H](C)C(=O)N[C@H](C(=O)N[C@@H](CO)C(=O)N[C@@H](Cc1ccc(O)cc1)C(=O)N[C@@H](CC(N)=O)C(=O)N[C@@H](CCC(N)=O)C(=O)N[C@@H](CCCCN)C(=O)N[C@@H](Cc1ccccc1)C(=O)N[C@@H](CCCCN)C(=O)O)[C@@H](C)O [Y5A] (H-YISCANGATSYNQKFK-OH; N-terminus and C-terminus assumed) | 98.10 |  |
|  | 20.2 |  | N=C(N)NCCC[C@H](NC(=O)[C@H](CO)NC(=O)[C@H](CCCNC(=N)N)NC(=O)[C@@H]1CCCN1C(=O)[C@H](Cc1ccc(O)cc1)NC(=O)[C@H](CO)NC(=O)[C@H](Cc1ccc(O)cc1)NC(=O)[C@H](CC(=O)O)NC(=O)[C@@H](N)CC(N)=O)C(=O)O [C7 L3] (H-NDYSYPRSR-OH) |  |  |
| 67.5 | 8.23 | 1.96 | CC[C@H](C)[C@H](NC(=O)[C@@H](N)Cc1ccc(O)cc1)C(=O)N[C@@H](CO)C(=O)N[C@@H](C)C(=O)N[C@@H](Cc1ccc(O)cc1)C(=O)N[C@@H](CC(N)=O)C(=O)NCC(=O)N[C@@H](C)C(=O)N[C@H](C(=O)N[C@@H](CO)C(=O)N[C@@H](Cc1ccc(O)cc1)C(=O)N[C@@H](CC(N)=O)C(=O)N[C@@H](CCC(N)=O)C(=O)N[C@@H](CCCCN)C(=O)N[C@@H](Cc1ccccc1)C(=O)N[C@@H](CCCCN)C(=O)O)[C@@H](C)O [C4A] (H-YISAYNGATSYNQKFK-OH; N-terminus and C-terminus assumed) | 94.51 |  |
|  | 5.11 |  | N=C(N)NCCC[C@H](NC(=O)[C@H](CCC(N)=O)NC(=O)[C@@H](N)CCC(N)=O)C(=O)N[C@@H](CO)C(=O)N[C@@H](CC(N)=O)C(=O)N[C@@H](Cc1c[nH]c2ccccc12)C(=O)N1CCC[C@H]1C(=O)N[C@@H](CCCNC(=N)N)C(=O)N[C@@H](CO)C(=O)O [HuA L3] (H-QQRSNWPRS-OH) |  |  |
